Test results taken from article PMC10120462, “Styrylquinazoline derivatives as ABL inhibitors selective for different DFG orientations” (Journal of Enzyme Inhibition and Medicinal Chemistry, 2023).
“Also recorded” adds a separate entry of the source.

Target: T1, ABL (Homo sapiens, UniProt P00519)
T1 construct: purchased Promega
Assay: Pharmacological synergy on the ABL enzyme model (ABL1 Kinase Assay)
Assay type: biochemical
Conditions: Chou-Talalay method
Protocol: We selected the aforementioned reference inhibitors based on their different modes of interaction with the kinases. […] Thus, the results of this experiment may allow identification of the site where the IS1 inhibitor binds to ABL kinase.
Synergy experiments were performed analogously to our previous reports[36]^,[65]. Synergy was calculated by the Chou-Talay method (CompuSyn software)[66]^,[67]. Experiments were performed at least three times.

T1 sequence (P00519 whole entry): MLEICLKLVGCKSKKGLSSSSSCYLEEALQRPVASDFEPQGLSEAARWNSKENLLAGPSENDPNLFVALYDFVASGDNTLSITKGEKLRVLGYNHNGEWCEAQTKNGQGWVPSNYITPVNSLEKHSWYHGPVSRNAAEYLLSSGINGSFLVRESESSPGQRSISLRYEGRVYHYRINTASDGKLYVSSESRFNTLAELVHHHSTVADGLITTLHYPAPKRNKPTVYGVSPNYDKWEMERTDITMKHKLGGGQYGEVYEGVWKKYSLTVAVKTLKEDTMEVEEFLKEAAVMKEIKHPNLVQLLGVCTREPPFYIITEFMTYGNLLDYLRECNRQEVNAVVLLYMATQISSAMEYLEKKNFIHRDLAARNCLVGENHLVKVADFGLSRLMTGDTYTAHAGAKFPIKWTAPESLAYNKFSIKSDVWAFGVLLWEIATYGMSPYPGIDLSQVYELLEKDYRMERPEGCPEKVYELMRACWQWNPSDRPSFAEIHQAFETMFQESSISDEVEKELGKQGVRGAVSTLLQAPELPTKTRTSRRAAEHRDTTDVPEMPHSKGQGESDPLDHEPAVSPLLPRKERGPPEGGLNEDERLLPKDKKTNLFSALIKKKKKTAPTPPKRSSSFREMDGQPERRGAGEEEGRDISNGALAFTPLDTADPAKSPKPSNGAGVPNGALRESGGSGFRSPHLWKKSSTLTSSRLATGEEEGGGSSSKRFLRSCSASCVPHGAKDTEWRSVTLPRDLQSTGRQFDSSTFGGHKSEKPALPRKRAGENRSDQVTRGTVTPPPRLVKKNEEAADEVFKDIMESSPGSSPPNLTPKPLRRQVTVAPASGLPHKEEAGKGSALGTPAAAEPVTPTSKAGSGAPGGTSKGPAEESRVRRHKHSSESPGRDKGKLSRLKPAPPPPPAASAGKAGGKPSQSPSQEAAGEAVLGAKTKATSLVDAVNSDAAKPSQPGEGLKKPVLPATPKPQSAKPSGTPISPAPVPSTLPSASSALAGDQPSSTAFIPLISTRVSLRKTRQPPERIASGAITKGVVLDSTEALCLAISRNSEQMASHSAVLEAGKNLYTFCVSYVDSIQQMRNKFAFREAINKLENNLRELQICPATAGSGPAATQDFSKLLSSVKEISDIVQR

Effect on ABL inhibition of IS1 in combination with dasatinib: virtually no effect
Effect on ABL inhibition of IS1 in combination with imatinib: synergistic effect
Structure (SMILES): COc1ccccc1/C=C/c1nc(Sc2ccccc2Cl)c2ccccc2n1 [IS1, 2-[(E)-2–(2-methoxyphenyl)ethenyl]-4–(2-chlorophenylthio)quinazoline]
Effect on ABL inhibition of IS1 in combination with GNF-2: significantly attenuated inhibition; also recorded: antagonistic outcome
